Experimental data from patent US20050208496A1, “Methods of testing for bronchial asthma or chronic obstructive pulmonary disease” (Genox Research, Inc., priority 2002, published 2005).

System: respiratory epithelial cells

IL-13: human IL-13 (Peprotech, Inc.) added to the medium at 50 ng/mL to stimulate respiratory epithelial cells
IFIT4 (38584_at) expression, fold change upon IL-13 stimulation (lot 2, Day 3, AI method): 10.3 fold
IFITM1 (675_at) expression, fold change upon IL-13 stimulation (lot 2, Day 3, AI method): 3.6 fold
IL13RA2 (1016_s_at) expression fold change upon IL-13 stimulation (lot 2, Day 3, AI method): 15.9 fold
IL19 (47855_at) expression fold change (lot 2, Day 3, AI method): 10.9 fold
ILIRL1 (40322_at) expression, fold change upon IL-13 stimulation (lot 2, Day 3, AI method): 9.8 fold
IRF7 (36412_s_at) expression fold change (lot 2, Day 3, AI method): 3.4 fold
ISG15 (1107_s_at) expression, fold change upon IL-13 stimulation (lot 2, Day 3, AI method): 8.8 fold
ISG15 (38432_at) expression, fold change upon IL-13 stimulation (lot 2, Day 3, AI method): 12.6 fold
ISG20 (33304_at) expression, fold change upon IL-13 stimulation (lot 2, Day 3, AI method): 3.3 fold
KIAA0537 (33787_at) expression, fold change upon IL-13 stimulation (lot 2, Day 3, AI method): 4.8 fold
KIAA1199 (36070_at) expression, fold change upon IL-13 stimulation (lot 2, Day 3, AI method): 2.7 fold
KIAA1268 (57050_at) expression fold change (lot 2, Day 3, AI method): 2.2 fold
KIAAI268 (59516_at) expression fold change (lot 2, Day 3, AI method): 2.2 fold
KRT16 (601_s_at) expression fold change (lot 2, Day 3, AI method): 5.2 fold
LAMP3 (37168_at) expression, fold change upon IL-13 stimulation (lot 2, Day 3, AI method): 5.4 fold
LOC57118 (51085_at) expression fold change (lot 2, Day 3, AI method): 2.7 fold
LOC64116 (40456_at) expression, fold change upon IL-13 stimulation (lot 2, Day 3, AI method): 5.6 fold
MDA5 (51920_at) expression fold change (lot 2, Day 3, AI method): 3.3 fold
MFHAS1 (50388_at) expression fold change (lot 2, Day 3, AI method): 2.4 fold
MICB (35937_at) expression, fold change upon IL-13 stimulation (lot 2, Day 3, AI method): 2.7 fold
MKP-L (38272_at) expression, fold change upon IL-13 stimulation (lot 2, Day 3, AI method): 2.5 fold
MMP7 (668_s_at) expression, fold change upon IL-13 stimulation (lot 2, Day 3, AI method): 3.4 fold
MP1 (34839_at) expression, fold change upon IL-13 stimulation (lot 2, Day 3, AI method): 2 fold
MX2 (879_at) expression fold change (lot 2, Day 3, AI method): 6.9 fold
MXI (37014_at) expression fold change (lot 2, Day 3, AI method): 11.4 fold
NCF2 (41038_at) expression fold change (lot 2, Day 3, AI method): 4.4 fold
NK4 (39119_s_at) expression fold change upon IL-13 stimulation (lot 2, Day 3, AI method): 4.1 fold
NOS2A (1948_f_at) expression fold change upon IL-13 stimulation (lot 2, Day 3, AI method): 14.5 fold
NOS2A (48918_at) expression fold change (lot 2, Day 3, AI method): 25.4 fold
OAF (39695_at) expression, fold change upon IL-13 stimulation (lot 2, Day 3, AI method): 2.7 fold
OAS1 (38388_at) expression fold change upon IL-13 stimulation (lot 2, Day 3, AI method): 6.5 fold
OAS1 (38389_at) expression fold change upon IL-13 stimulation (lot 2, Day 3, AI method): 4.7 fold
OAS2 (39263_at) expression fold change upon IL-13 stimulation (lot 2, Day 3, AI method): 3.5 fold
OSF-2 (1451_s_at) expression fold change upon IL-13 stimulation (lot 2, Day 3, AI method): 86.8 fold
PKD2 (38120_at) expression, fold change upon IL-13 stimulation (lot 2, Day 3, AI method): 2.4 fold
PLOD2 (34795_at) expression fold change upon IL-13 stimulation (lot 2, Day 3, AI method): 2 fold
PLS1 (39951_at) expression fold change (lot 2, Day 3, AI method): 3.1 fold
PLSCR1 (32775_r_at) expression fold change upon IL-13 stimulation (lot 2, Day 3, AI method): 3 fold
PMCH (32005_at) expression fold change (lot 2, Day 3, AI method): 12.2 fold
PSMB9 (38287_at) expression fold change upon IL-13 stimulation (lot 2, Day 3, AI method): 2.7 fold
PVRL2 (50320_g_at) expression fold change (lot 2, Day 3, AI method): 2.2 fold
RASGRP1 (33291_at) expression fold change (lot 2, Day 3, AI method): 3.7 fold
RIG-1 (59215_at) expression fold change (lot 2, Day 3, AI method): 11.8 fold
SAMHD1 (34714_at) expression, fold change upon IL-13 stimulation (lot 2, Day 3, AI method): 3.7 fold
SCYB10 (431_at) expression fold change upon IL-13 stimulation (lot 2, Day 3, AI method): 4.9 fold
SCYB11 (35061_at) expression fold change upon IL-13 stimulation (lot 2, Day 3, AI method): 6.8 fold
SECTM1 (41045_at) expression, fold change upon IL-13 stimulation (lot 2, Day 3, AI method): 6.8 fold
SERPINB2 (37185_at) expression fold change (lot 2, Day 3, AI method): 4.1 fold
SERPINB4 (1549_s_at) expression fold change (lot 2, Day 3, AI method): 9.6 fold
SERPINB6 (34789_at) expression fold change (lot 2, Day 3, AI method): 2.1 fold
SIAT1 (41352_at) expression fold change upon IL-13 stimulation (lot 2, Day 3, AI method): 3.9 fold
SLC26A4, pendrin (36376_at) expression fold change (lot 2, Day 3, AI method): 118.3 fold
SSI-1 (41592_at) expression, fold change upon IL-13 stimulation (lot 2, Day 3, AI method): 15.5 fold
STAT1 (32860_g_at) expression fold change (lot 2, Day 3, AI method): 2.1 fold
STAT1 (33338_at) expression fold change (lot 2, Day 3, AI method): 5.8 fold
STAT1 (33339_g_at) expression fold change (lot 2, Day 3, AI method): 3.2 fold
TGFB2 (1262_s_at) expression fold change upon IL-13 stimulation (lot 2, Day 3, AI method): 4.1 fold
TGM2 (38404_at) expression fold change upon IL-13 stimulation (lot 2, Day 3, AI method): 2.1 fold
THBS1 (115_at) expression fold change upon IL-13 stimulation (lot 2, Day 3, AI method): 4.1 fold
TSPAN-3 (38612_at) expression, fold change upon IL-13 stimulation (lot 2, Day 3, AI method): 2.5 fold
UBE2L6 (40505_at) expression fold change upon IL-13 stimulation (lot 2, Day 3, AI method): 2.1 fold
UFD1L (811_at) expression, fold change upon IL-13 stimulation (lot 2, Day 3, AI method): 3.1 fold
WARS (38121_at) expression fold change upon IL-13 stimulation (lot 2, Day 3, AI method): 8.7 fold
cig5 (38549_at) expression, fold change upon IL-13 stimulation (lot 2, Day 3, AI method): 14.3 fold
diubiquitin (39959_at) expression, fold change upon IL-13 stimulation (lot 2, Day 3, AI method): 16.3 fold
AA167714 (54897_at) expression fold change (lot 2, Day 7, AI method): 4.7 fold
AA420479 (52539_at) expression fold change (lot 2, Day 7, AI method): 10.1 fold
AA541787 (52622_at) expression fold change (lot 2, Day 7, AI method): 3.9 fold
AA582926 (52307_at) expression fold change (lot 2, Day 7, AI method): 3.7 fold
AA604375 (44127_at) expression fold change (lot 2, Day 7, AI method): 3.9 fold
ACP5 (677_s_at) expression, fold change upon IL-13 stimulation (lot 2, Day 7, AI method): 2.8 fold
ADAM8 (40712_at) expression, fold change upon IL-13 stimulation (lot 2, Day 7, AI method): 4.5 fold
ADAM28 (35479_at) expression, fold change upon IL-13 stimulation (lot 2, Day 7, AI method): 3.7 fold
AI565105 (54886_at) expression fold change (lot 2, Day 7, AI method): 2.4 fold
AI659927 (54033_at) expression fold change (lot 2, Day 7, AI method): 3 fold
AI700705 (46658_at) expression fold change (lot 2, Day 7, AI method): 2.5 fold
AI821796 (57694_at) expression fold change (lot 2, Day 7, AI method): 2.5 fold
AI989346 (52327_s_at) expression fold change (lot 2, Day 7, AI method): 2.5 fold
AKAP2 (35985_at) expression, fold change upon IL-13 stimulation (lot 2, Day 7, AI method): 7.6 fold
AKAP2 (48035_at) expression fold change (lot 2, Day 7, AI method): 6.4 fold
AKAP10 (36632_at) expression, fold change upon IL-13 stimulation (lot 2, Day 7, AI method): 2.4 fold
ALOX15 (34636_at) expression, fold change upon IL-13 stimulation (lot 2, Day 7, AI method): 322.1 fold
ARHE (35803_at) expression fold change upon IL-13 stimulation (lot 2, Day 7, AI method): 2 fold
ARL7 (57151_at) expression fold change (lot 2, Day 7, AI method): 5.3 fold
AW019985 (48826_s_at) expression fold change (lot 2, Day 7, AI method): 14.7 fold
AXL (38433_at) expression, fold change upon IL-13 stimulation (lot 2, Day 7, AI method): 7.5 fold
BAL (52167_at) expression fold change (lot 2, Day 7, AI method): 1.6 fold
BIG2 (34484_at) expression, fold change upon IL-13 stimulation (lot 2, Day 7, AI method): 2.9 fold
BST2 (39061_at) expression, fold change upon IL-13 stimulation (lot 2, Day 7, AI method): 3.1 fold
C1S (40496_at) expression, fold change upon IL-13 stimulation (lot 2, Day 7, AI method): 4.1 fold
C21orf11 (58957_at) expression fold change (lot 2, Day 7, AI method): 2.4 fold
CDH6 (1620_at) expression fold change upon IL-13 stimulation (lot 2, Day 7, AI method): 12.1 fold
CDH6 (57421_at) expression fold change (lot 2, Day 7, AI method): 3.7 fold
CDH26 (46916_at) expression fold change (lot 2, Day 7, AI method): 5.4 fold
CH25H (32363_at) expression, fold change upon IL-13 stimulation (lot 2, Day 7, AI method): 12 fold
CLDN1 (46260_at) expression fold change (lot 2, Day 7, AI method): 3.6 fold
CLDN4 (35276_at) expression, fold change upon IL-13 stimulation (lot 2, Day 7, AI method): 23 fold
CLDN5 (38995_at) expression, fold change upon IL-13 stimulation (lot 2, Day 7, AI method): 8.3 fold
CTSC (133_at) expression, fold change upon IL-13 stimulation (lot 2, Day 7, AI method): 2.2 fold
CXCL16 (44095_at) expression fold change (lot 2, Day 7, AI method): 2 fold
DBCCR1 (40292_at) expression, fold change upon IL-13 stimulation (lot 2, Day 7, AI method): 19.3 fold
DD96 (31610_at) expression, fold change upon IL-13 stimulation (lot 2, Day 7, AI method): 2.5 fold
DDIT3 (39420_at) expression, fold change upon IL-13 stimulation (lot 2, Day 7, AI method): 29.5 fold
DKFZP564O0823 (41402_at) expression, fold change upon IL-13 stimulation (lot 2, Day 7, AI method): 4.6 fold
DKFZP566J091 (57197_at) expression fold change (lot 2, Day 7, AI method): 15.2 fold
DKFZp564N1116 (37784_at) expression, fold change upon IL-13 stimulation (lot 2, Day 7, AI method): 7.8 fold
